Here are results for 24 compounds from patent US20240316038A1, “APOL1 INHIBITORS AND METHODS OF USE” (Maze Therapeutics, Inc., priority 2021, published 2024).

pEC50: −log10 of the molar value.

The target in test [1] is T1, APOL1 G2 (Homo sapiens, UniProt O14791, DEL388-389).
T1 construct: expressed in transfected cells; host or cells: HEK293 T-REx clonal lines: HEK T-REx/GCaMP6f/APOL1 G2 K6.3 in A1, HEK293/T-REx APOL1 G2/clone #2 in A2
T1 sequence (O14791 with tags, fused parts or gaps DEL388-389): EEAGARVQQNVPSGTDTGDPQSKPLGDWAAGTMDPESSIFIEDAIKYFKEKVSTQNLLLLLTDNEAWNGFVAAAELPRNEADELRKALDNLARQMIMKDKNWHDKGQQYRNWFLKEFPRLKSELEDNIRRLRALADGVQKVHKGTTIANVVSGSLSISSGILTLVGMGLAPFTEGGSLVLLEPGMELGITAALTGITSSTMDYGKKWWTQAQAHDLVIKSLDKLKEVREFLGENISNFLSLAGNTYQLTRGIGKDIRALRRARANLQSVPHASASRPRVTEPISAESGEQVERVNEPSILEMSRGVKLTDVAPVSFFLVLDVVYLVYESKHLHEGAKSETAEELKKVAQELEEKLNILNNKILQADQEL
The test is described as follows: Rescue of HEK293 cell death caused by overexpression of APOL1 (CellTiter-Glo luminescence), HEK293/T-REx APOL1 G2/clone #2. It is filed as cell-based. The note with it: reversal of cell death caused by overexpression of APOL1; geometric mean of at least 2 assay runs, † = single assay run (technical duplicate). Put shortly:
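HEK293/T-REx APOL1 G2 clone #2 cells, 5,000/well, induced with 6 ng/mL doxycycline and exposed to compound (8-point, 3-fold dilutions, 0.5% DMSO) for 17 h at 37 °C. Viability by CellTiter-Glo luminescence; EC50 for reversal of APOL1-induced death from a four-parameter logistic fit, geometric mean of ≥2 runs.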
A general note: ATP-based viability assays read luminescence as a measure of living cells.

Test [2] deals with T1, APOL1 G2. The test is described as follows: APOL1 calcium transport inhibition assay (GCaMP6f calcium influx, FLIPR) in HEK T-REx/GCaMP6f/APOL1 G2 K6.3 cells. In kind it is cell-based. The following applies: inhibition of APOL1-mediated calcium influx; geometric mean of at least 2 assay runs, † = single assay run (technical duplicate). In short, it runs like this:
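HEK293 cells stably expressing GCaMP6f, APOL1 G2 induced 6 h with doxycycline (20 ng/mL added), then washed into Ca2+-free Tyrode's buffer pH 7.4. Compounds (8-point dose response) preincubated 10 min at room temperature, then Ca2+ injected to 5 mM final and influx read on FLIPR. AC50 reported as geometric mean of runs.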

By pEC50 is commonly meant −log10 of the EC50, conventionally taken in molar units. What is called AC50 is the midpoint of the concentration-response curve, whichever way the signal moves. Turning to `CN(c1ccc(OC[C@H](O)CN2CCC(c3cccc(Cl)c3)C2(C)C)cc1)S(C)(=O)=O` (single isomer, unassigned) [Compound 72, N-(4-((R)-3-((S) or (R)-3-(3-chlorophenyl)-2,2-dimethylpyrrolidin-1-yl)-2-hydroxypropoxy)phe-nyl)-N-methylmethanesulfon-amide], the pEC50 on APOL1 G2 [1] is 5.91. In addition, the AC50 on APOL1 G2 [2] came to 314 nM.

With `C[C@@H]1CN(CCc2cc(C#N)cc(C#N)c2)C[C@H]1COc1ccc(S(C)(=O)=O)cc1` [Compound 145, 5-{2-[(3S,4S)-3-[(4-methane-sulfonylphen-oxy)methyl]-4-methylpyrroli-din-1-yl]ethyl}-benzene-1,3-dicarbonitrile], on APOL1 G2 [1], the pEC50 is 6.61. For the same compound, the AC50 on APOL1 G2 [2] is 356 nM.

With `CS(=O)(=O)c1ccc(OC[C@@H](O)CN2CCCCC2Cc2cccc(Cl)c2)cc1` (single isomer, unassigned) [Compound 64, (2S)-1-((R) or (S)-2-(3-chlorobenzyl)piperidin-1-yl)-3-(4-(methylsulfonyl)phenoxy)propan-2-ol], at APOL1 G2 [1], the pEC50 was 5.95. For the same compound, on APOL1 G2 [2], the AC50 worked out at 570 nM.

Take `C[C@@H]1CN(CCc2cc(Cl)cc(C#N)c2)C[C@H]1COc1ccc(S(=O)(=O)CCS(C)(=O)=O)cc1` [Compound 108, 3-chloro-5-{2-[(3S,4S)-3-{[4-(2-methanesulfonyl-ethanesulfonyl)phenoxy]methyl}-4-methyl-pyrrolidin-1-yl]ethyl}benzonitrile]: the pEC50 on APOL1 G2 [1] was 7.30. Also, the AC50 at APOL1 G2 [2] stood at 144 nM.

With `C[C@H]1CN(CCc2cccc(Cl)c2)C[C@H]1COc1ccc(S(C)(=O)=O)cc1` (single isomer, unassigned) [Compound 152, (3S,4R or 3R, 4S)-1-[2-(3-chlorophenyl)-ethyl]-3-[(4-methanesulfon-ylphenoxy)meth-yl]-4-methyl-pyrrolidine], the pEC50 on APOL1 G2 [1] is 5.33. The AC50 on APOL1 G2 [2] turned out to be 1990 nM.

Turning to `CC1CC(COc2ccc(S(C)(=O)=O)cc2)CN1CCc1cc(Cl)cc(C#N)c1` (single isomer, unassigned) [Compound 202, rac-trans or cis-3-chloro-5-{2-[4-[(4-methanesulfonylphenoxy)methyl]-2-methylpyrrolidin-1-yl]ethyl}benzonitrile], the pEC50 on APOL1 G2 [1] is 7.05. The AC50 on APOL1 G2 [2] came out at 860 nM.

As for `C[C@@H]1CN(CCc2cc(Cl)cc(C#N)c2)C[C@H]1COc1ccc(S(C)(=O)=O)cc1` [Compound 194, 3-chloro-5-{2-[(3S,4S)-3-[(4-methanesulfonylphenoxy)methyl]-4-methylpyrrolidin-1-yl]ethyl}benzonnitrile], the pEC50 on APOL1 G2 [1] is 6.97. Moreover, the AC50 at APOL1 G2 [2] was 151 nM.

For `C[C@@H]1CN(CCc2cc(Cl)cc(C#N)c2)C[C@H]1COc1ccc(S(=O)(=O)CCO)cc1` [Compound 174, 3-chloro-5-{2-[(3S,4S)-3-{[4-(2-hydroxyethanesul-fonyl)phenoxy]meth-yl}-4-methylpyrrolidin-1-yl]ethyl}benzonitrile], the pEC50 on APOL1 G2 [1] is 7.44. Besides, on APOL1 G2 [2], the AC50 came out at 157 nM.

Consider `C[C@@H]1CC[C@H](COc2ccc(S(C)(=O)=O)cc2)CN1CCc1cccc(Cl)c1` [Compound 160, (2R,5S)-1-[2-(3-chlorophenyl)ethyl]-5-[(4-methanesulfonylphenoxy)methyl]-2-methylpiperidine], for which the pEC50 at APOL1 G2 [1] was 6.23. The AC50 at APOL1 G2 [2] worked out at 382 nM.

On to `CC1CNC(COc2ccc(S(C)(=O)=O)cc2)CN1CCc1cccc(Cl)c1` (single isomer, unassigned) [Compound 212, rac-cis or trans-(2R,5S)-1-[2-(3-chlorophenyl)ethyl]-5-[(4-methanesulfonylphenoxy)methyl]-2-methylpiperazine], for which, on APOL1 G2 [1], the pEC50 was < 4.84. The AC50 at APOL1 G2 [2] worked out at 2550 nM.

Consider `CN(c1ccc(OC[C@@H](O)CN2CCOC(c3cccc(Cl)c3)C2)cc1)S(C)(=O)=O` (single isomer, unassigned) [Compound 82, N-(4-((S)-3-((R) or (S)-2-(3-chlorophenyl)morpho-lino)-2-hydroxypropoxy)phe-nyl)-N-methylmethanesulfon-amide], for which the pEC50 on APOL1 G2 [1] was < 4.61. Also, the AC50 on APOL1 G2 [2] turned out to be 4350 nM.

For `O=S(=O)(c1ccc(OC[C@@H]2CN(CCc3cccc(Cl)c3)CCN2)cc1)C1CNC1` [Compound 185, (3S)-3-{[4-(azetidine-3-sulfonyl)phenoxy]methyl}-1-[2-(3-chlorophenyl)ethyl]piperazine], the pEC50 at APOL1 G2 [1] is 6.62. At APOL1 G2 [2], the concentration at half-maximal activity (AC50) is 322 nM.

`CS(=O)(=O)c1ccc(OC[C@H]2CN(CCc3cccc(Cl)c3)CCN2)cc1` [Compound 14, (R)-1-(3-chlorophenethyl)-3-((4-(methylsulfonyl)phenoxy)methyl)piperazine]: the pEC50 at APOL1 G2 [1] is < 4.52. Moreover, the AC50 on APOL1 G2 [2] was 3340 nM.

For the compound `C[C@@H]1CN(CC(O)c2cccc(C#N)c2)C[C@H]1COc1ccc(S(C)(=O)=O)cc1` (single isomer, unassigned) [Compound 127, 3-[(1S or 1R)-1-hydroxy-2-[(3S,4S)-3-[(4-methanesulfonylphenoxy)methyl]-4-methylpyrrolidin-1-yl]ethyl] benzonitrile], the pEC50 at APOL1 G2 [1] is < 5.00. Moreover, at APOL1 G2 [2], the AC50 is 2480 nM.

For the compound `CN=S(C)(=O)c1ccc(OC[C@H]2C[C@@H](C)N(CCc3cccc(C#N)c3)C2)cc1` (stereo partly drawn) [Compound 157, 3-[2-[(2R,4S)-2-methyl-4-({4-[methyl(methyli-mino)oxo-λ^6-sulfanyl]phenoxy}methyl)pyrrolidin-1-yl]ethyl}benzonitrile], the pEC50 on APOL1 G2 [1] is 7.41. Also, at APOL1 G2 [2], the AC50 was determined as 441 nM.

For the compound `CS(=O)(=O)c1ccc(OC[C@@H]2CN(CCc3cc(C#N)cc(C(F)(F)F)c3)CCN2)cc1` [Compound 193, 3-{2-[(3S)-3-[(4-methanesulfonylphenoxy)methyl]piperazin-1-yl]ethyl}-5-(trifluoromethyl)benzonitrile], on APOL1 G2 [1], the pEC50 is 6.11. For the same compound, the AC50 at APOL1 G2 [2] came to 1450 nM.

For `CS(=O)(=O)c1ccc(OC[C@H]2CCN(CCc3cccc(Cl)c3)C2)cc1` [Compound 51, (S)-1-(3-chlorophenethyl)-3-((4-(methylsulfonyl)phenoxy)methyl)pyrrolidine], the pEC50 at APOL1 G2 [1] is 5.83. On APOL1 G2 [2], the AC50 is 727 nM.

For `CC1(C)CC(COc2ccc(S(C)(=O)=O)cc2)CN1CCc1cccc(Cl)c1` (stereo not drawn) [Compound 42, 1-(3-chlorophenethyl)-2,2-dimethyl-4-((4-(methylsulfonyl)phenoxy)methyl) pyrrolidine], the pEC50 on APOL1 G2 [1] was 7.23. At APOL1 G2 [2], the AC50 is 477 nM.

As to `C[C@@H]1C[C@H](COc2ccc(S(C)(=O)=O)cc2)CN1CC(O)c1cccc(Cl)c1` (single isomer, unassigned) [Compound 214, (1R) or (1S)-1-(3-chlorophenyl)-2-[(2R,4S)-4-[(4-methanesulfonylphenoxy)methyl]-2-methylpyrrolidin-1-yl]ethan-1-ol], the pEC50 at APOL1 G2 [1] was 6.17. Also, the AC50 on APOL1 G2 [2] stood at 428 nM.

`CCN(CCc1cccc(Cl)c1)C[C@H](O)COc1ccc(N(C)S(C)(=O)=O)cc1` [Compound 60, (S)-N-(4-(3-((3-chlorophenethyl)(ethyl)amino)-2-hydroxypropoxy)phenyl)-N-methylmethanesulfonamide]: at APOL1 G2 [1], the pEC50 is 6.51. In addition, the concentration at half-maximal activity (AC50) on APOL1 G2 [2] is < 267 nM.

As for `CN=S(C)(=O)c1ccc(OC[C@@H]2CN(CCc3cccc(C#N)c3)C[C@H]2C)cc1` (single isomer, unassigned) [Compound 170, 3-{2-[(3S,4S)-3-methyl-4-({4-[(R or S)-methyl(methylimi-no)oxo-λ^6-sulfanyl]phenoxy}methyl)pyrrolidin-1-yl]ethyl}benzonitrile], the pEC50 on APOL1 G2 [1] was 7.12. Besides, the AC50 at APOL1 G2 [2] came out at 37.5 nM.

Consider `CC1CC(COc2ccc(S(C)(=O)=O)cc2)CN1CCc1cc(Cl)cc(C#N)c1` (single isomer, unassigned) [Compound 199, rac-cis or trans-3-chloro-5-{2-[4-[(4-methanesulfonylphenoxy)methyl]-2-methylpyrrolidin-1-yl]ethyl}benzonitrile], for which the pEC50 on APOL1 G2 [1] is 5.61. For the same compound, at APOL1 G2 [2], the AC50 is 817 nM.

As to `C[C@@H]1CN(CCc2cccc(Cl)c2)C[C@H]1COc1ccc(S(C)(=O)=O)cc1` [Compound 133, (35,4S)-1-[2-(3-chlorophenyl)ethyl]-3-[(4-methanesulfonylphenoxy)methyl]-4-methylpyrrolidine], the pEC50 on APOL1 G2 [1] was 6.87. Further, the AC50 on APOL1 G2 [2] turned out to be 38.3 nM.

For the compound `CN(c1ccc(OCC2CN(CCc3cccc(Cl)c3)CCCO2)cc1)S(C)(=O)=O` (stereo not drawn) [Compound 10, N-(4-((4-(3-chlorophenethyl)-1,4-oxazepan-2-yl)methoxy)phenyl)-N-methylmethane-sulfonamide], on APOL1 G2 [1], the pEC50 was 5.61. Besides, the AC50 at APOL1 G2 [2] was determined as 1720 nM.
